{"source": "paper PMC3436903", "about": "(Chembiochem : a European journal of chemical biology, 2011)", "experiment": "pH-dependence of keto acid-lactol equilibrium by 1H-NMR in D2O", "format": "physicochemical"}
{"molecule": "Nc1ncnc2c1ncn2[C@@H]1O[C@H](CNS(=O)(=O)NC(=O)CCC(=O)c2ccccc2C(=O)O)[C@@H](O)[C@H]1O", "note": "[Inhibitor 5]", "values": [{"measurement": "pD range of rapid equilibration of keto acid and lactol forms", "setting": "intermediate chemical shifts", "result": "1.32–4.32 pD"}, {"measurement": "pD at which the lactol form is observed", "setting": "ketone α-protons at ≈2.45 ppm", "result": 0.89, "unit": "pD"}, {"measurement": "pD at which the keto acid form is observed", "setting": "ketone α-protons at ≈3.2 ppm", "result": "≥ 5.70", "unit": "pD"}]}
